We go through 5 compounds from patent US11000505B2 (priority 2010, dated 2021).

The subject of series [1] is pial artery. To be noted: pig, in vivo.
Series [2] concerns the target T1, cloned rat kappa receptor (Rattus norvegicus, UniProt P34975).
T1 construct: expressed in transfected cells; host or cells: HEK cells (NIMH PDSP)
In words: biochemical. It counts as binding.

The subject of series [3] is mu, kappa and delta receptors. The settings on record: competition binding assays; cited from earlier work.
In series [4] the target is T2, cloned human mu receptor (Homo sapiens, UniProt P35372).
T2 construct: expressed in transfected cells; host or cells: HEK cells (NIMH PDSP)
T2 sequence (P35372 whole entry): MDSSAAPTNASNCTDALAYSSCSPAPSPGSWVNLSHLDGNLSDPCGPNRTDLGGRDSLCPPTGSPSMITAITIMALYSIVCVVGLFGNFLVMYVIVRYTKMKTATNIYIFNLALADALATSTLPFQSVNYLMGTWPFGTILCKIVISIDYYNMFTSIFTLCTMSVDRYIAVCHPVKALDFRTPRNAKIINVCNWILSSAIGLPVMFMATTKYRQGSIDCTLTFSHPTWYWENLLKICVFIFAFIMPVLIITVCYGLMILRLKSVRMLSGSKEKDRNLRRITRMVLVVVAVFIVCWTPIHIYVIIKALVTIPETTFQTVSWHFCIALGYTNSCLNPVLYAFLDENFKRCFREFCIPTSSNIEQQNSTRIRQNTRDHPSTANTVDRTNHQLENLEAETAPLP
Description: In-vitro affinity determination, [3H]DAMGO competition. It counts as binding.

Series [5] deals with pial artery. The settings on record: pig, in vivo. This is another data set of the same source.
Series [6] relates to cAMP. Description: cAMP in CSF by ELISA (Example 7). It counts as in vivo, newborn pigs. An excerpt: Newborn pigs (aged up to 6 days, 1.1-2.0 kg) of both genders were used for this study. Protocols were approved by the Institutional Animal Care and Use Committee of the University of Pennsylvania (Philadelphia). The newborn piglet model was used because its brain is gyrencepahalic and contains more white matter than grey matter, which is similar to that of humans. Furthermore, the head is large enough for the insertion of a cranial window and vascular visualization. Animals were induced with isoflurane (1-2 minimum alveolar concentration) and maintained with α-chloralose (80-100 mg/kg supplemented with 5 mg/kg·h, IV). Both femoral arteries were catheterized to monitor blood pressure and blood gas to maintain a constant carbon dioxide and pH. A catheter was inserted into the right femoral vein for medication administration. Animals were ventilated with room air after tracheal intubation. A heating pad was used to maintain the rectal temperature of animals at 37-39° C. A closed cranial window on the top of the head of the piglet was placed for direct pial artery visualization and diameter measurement. The closed cranial window consisted of three parts: a stainless steel ring, a circular glass cover slip, and three ports consisting of 17-gauge hypodermic needles attached to three precut holes in the stainless steel ring. CSF was collected through a cranial window port for cAMP measurement in some animals. […] Vascular diameter was measured from a video monitor that was connected to the camera with a video microscaler (VPA 550; For-A-Corp., Los Angeles, Calif.) by the investigator who administered the medication.
The cerebral cortical periarachnoid CSF samples were collected before and 10 min afterward administration of herkinorin and NTP to measure the cAMP level. […] Commercially available ELISA kits (Assay Designs, Ann Arbor, Mich.) were used to quantify cAMP concentrations.
A general note: An ELISA detects its analyte on a solid surface through an enzyme-linked reagent.

Series [7] concerns pial artery. It counts as in vivo, newborn pigs. To be noted: pig, in vivo.
Series [8] deals with pial artery. It counts as in vivo, piglets. To be noted: in vivo.

As usually defined, the pKi is −log10 of the Ki, conventionally taken in molar units.

pKi: −log10 of the molar value. Several values for one entry are separate records, joined by “and”; a condition that tells them apart may be missing. Equal values may be shown once.

T1 sequence (P34975 whole entry): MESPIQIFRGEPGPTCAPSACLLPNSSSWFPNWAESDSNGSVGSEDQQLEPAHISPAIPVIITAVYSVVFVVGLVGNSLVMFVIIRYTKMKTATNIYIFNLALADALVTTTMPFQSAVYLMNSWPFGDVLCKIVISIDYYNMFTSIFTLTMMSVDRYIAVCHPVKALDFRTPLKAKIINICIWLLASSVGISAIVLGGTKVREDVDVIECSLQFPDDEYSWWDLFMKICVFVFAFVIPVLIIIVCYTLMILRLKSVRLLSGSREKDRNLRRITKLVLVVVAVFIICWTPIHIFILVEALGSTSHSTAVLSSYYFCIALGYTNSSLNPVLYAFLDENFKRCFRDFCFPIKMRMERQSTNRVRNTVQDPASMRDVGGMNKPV

`O=c1[nH]c2cc(C(F)(F)F)ccc2n1-c1cc(C(F)(F)F)ccc1O` [NS1619, reference compound]: the “dilation response in presence of iberiotoxin” value in series [1] is listed as “blocked the dilation effects of NS1619”.

For `CC1(C)Oc2ccc(C#N)cc2C(N2CCCC2=O)C1O` (stereo not drawn) [cromakalim, reference compound], the “dilation response in presence of glibenclamide” value in series [1] is recorded as “blocked the dilation in response to cromakalim”.

On to `COC(=O)[C@@H]1C[C@H](OC(=O)c2ccccc2)C(=O)[C@H]2[C@@]1(C)CC[C@H]1C(=O)O[C@H](c3ccoc3)C[C@]21C` [herkinorin], for which the pKi in series [2] was 6.74. In addition, in series [3], the “selectivity for mu over delta receptors” value is “approximately 98 fold” and the “selectivity for mu over kappa receptors” value is recorded as “approximately 8 fold”. In addition, the negative-log Ki (pKi) in series [4] (HEK cells over-expressing receptor) is 7.35. Moreover, in series [4] (mu stronger than kappa), the “binding affinity to mu receptor relative to kappa receptor” value is recorded as “approximately 4 fold”. Also, in series [5], the “concentration required to effectively dilate pial arteries” value is 0.1 nM, the “dilation in presence of NTP” value is reported as “totally abolished by norbinaltorphimine”, the “dilation in presence of Rp-cAMPS” value is “blunted herkinorin-mediated pial artery dilation” and the “dilation in presence of β-FNA” value is on record as “not affected by β-FNA”. Moreover, in series [5], the “pial artery diameter dilation” value is 10.6% and 17.8%; the systemic blood pressure result is recorded as “without significant systemic blood pressure variation”. In addition, in series [6] (10 min after administration), the “cAMP levels in the CSF” value is “significantly increased cAMP levels in the CSF”. In series [6] (pig, in vivo), the “elevated cAMP levels with NTP” value is reported as “blocked by NTP” and the “elevated cAMP levels with β-FNA” value is listed as “not affected after β-FNA administration”.

Consider `CC(C)NCC(O)c1ccc(O)c(O)c1` (stereo not drawn) [isoproterenol, reference compound], for which, in series [1], the “dilation response in presence of naloxone” value was “unaffected” and the “dilation response in presence of norbinaltorphimine” value is given as “unaffected”. In series [7], the “pial artery response to the agent before and after HI” value is “no change was observed”. For the same compound, in series [8], the “pial artery response to the agent before and after hypoxia/ischemia” value is on record as “unchanged in all groups”. In addition, in series [5], the “dilation in presence of NTP” value is given as “unchanged by either NTP or β-FNA” and the “dilation in presence of β-FNA” value is on record as “unchanged by either NTP or β-FNA”.

With “methionine enkephalin [reference compound]”, in series [1], the “dilation response in presence of naloxone” value is on record as “blocked the dilation effects” and the “dilation response in presence of norbinaltorphimine” value was “blocked the dilation effects”.
